Assay results reported in patent publication US20210105999A1, “COMPOSITIONS FOR PROLONGING THE SURVIVAL AFTER ORTHOTOPIC AND HETEROTOPIC XENOGENEIC HEART, KIDNEY, LUNG OR LIVER TRANSPLANTATIONS” (priority 2018, published 2021).

What was measured:
[1] = target: T1, phosphorylated mTOR (Sus scrofa, UniProt F1RHR8); assay: Western blot analysis of myocardium of transplanted hearts, phosphorylated mTOR; type: in vivo, pig; conditions: experiment 67 (group III), after treatment with temsirolimus, compared to control (Co)
T1 construct: heart samples were homogenized in Laemmli-extraction-buffer; from tissue; host or cells: myocardium of GTKO/hCD46/hTM pig donor hearts transplanted orthotopically into baboons (Papio anubis); control: non-transplanted pig heart
Description: For protein extraction, heart samples were homogenized in Laemmli-extraction-buffer, and the protein content was estimated by the bicinchoninic acid (BCA, Merck, Darmstadt, Germany) protein assay. 20 μg of total protein was separated by 10% SDS-PAGE and transferred to polyvinylidene difluoride (PDVF) membranes (Millipore, Billerica, USA) by electroblotting. Membranes were washed in Tris-buffered saline solution with 0.1% Tween-20 (Merck) (TBS-T) and blocked in 5% w/v fat-free milk powder (Roth, Karlsruhe, Germany) for 1 h at room temperature. Then membranes were washed again in TBS-T and incubated in 5% w/v BSA (Roth) of the appropriate primary antibody overnight at 4° C. […] Bound antibodies were detected using an enhanced chemiluminescence detection reagent (ECL Advance Western Blotting Detection Kit, GE Healthcare, Munich, Germany) and appropriate x-ray films (GE Healthcare). […]
For protein extraction, heart samples were homogenized in Laemmli sample buffer and the protein content was estimated using the bicinchoninic acid (BCA, Merck) protein assay. […] Bound antibodies were detected using an enhanced chemiluminescence detection reagent (ECL Advance Western Blotting Detection Kit, GE Healthcare) and appropriate X-ray films (GE Healthcare). […]

[2] = test system: transplanted GT-KO/hCD46/hTM porcine donor heart; assay: Life-supporting orthotopic pig-to-baboon cardiac xenotransplantation; type: in vivo, baboon (Papio Anubis)
Excerpt: Seven juvenile pigs of cross-bred genetic backround (German Landrace and Large White, blood group 0) served as donors for heart xenotransplantation. All organs were homozygous for alpha 1,3-galactosyltransferase knockout (GT-KO), and transgeneic for hCD46/thrombomodulin (hTM) (Revivicor, Blacksburg, Va., USA and Institute for Molecular Animal Breeding and Biotechnology, Gene Center, Faculty of Veterinary Medicine, Ludwig-Maximilians-University, Munich, Germany). Localisation and stability of hCD46/hTM expression was verified post-mortem by immunohistochemistry (FIG. 15). Donor heart function and absence of valvular defects were evaluated 7 days prior to transplantation by echocardiographies. Seven male captive-bred baboons (Papio Anubis, blood groups B and AB) were used as recipients.
The recipient's thorax was opened at midline. Unfractionated heparin (500 IU/kg; Heparin-Natrium-25000-ratiopharm, ratiopharm GmbH, Ulm, Germany) was given and the heart-lung machine connected, using both caval veins and the ascending aorta. Cardiopulmonary bypass commenced and the recipient cooled (30° C. in group I, 34° C. in groups II and III). After crossclamping the ascending aorta, the recipient's heart was excised at the atrial levels, both large vessels were cut. The porcine donor heart was transplanted applying Shumway's and Lower's technique (cf. reference 8).
Immunosuppression was based on Mohiuddin's regimen (cf. reference 5; there were changes as indicated in the following), with C1 esterase inhibitor instead of cobra venom factor for complement inhibition. Induction consisted of anti-CD20 antibody (Mabthera; Roche Pharma AG, Grenzach-Wyhlen, Germany), ATG (Thymoglobuline, Sanofi-Aventis Germany GmbH, Frankfurt, Germany), and either anti-CD40 antibody (mouse/rhesus chimeric IgG4 clone 2C10R4, NIH Nonhuman Primate Reagent Resource, Mass Biologicals, Boston, Mass., USA; courtesy of Keith Reimann) or humanised anti-CD40L pasylated Fab (production: Wacker-Chemie, Burghausen, Germany; purification: XL-protein GmbH, Freising, Germany; courtesy of Arne Skerra, cf. reference 9). Maintenance immunosuppression consisted of MMF (CellCept, Roche, Basle, Switzerland; trough level 2-3 μg/ml), either anti-CD40 antibody or anti-CD40L pasylated Fab, methylprednisolone (Urbasone solubile, Sanofi-Aventis Germany GmbH, Frankfurt, Germany). Anti-inflammatory therapy included II-6-receptor antibody (RoActemra, Roche Pharma AG, Grenzach-Wyhlen, Germany), TNFα inhibitor (Enbrel, Pfizer Pharma GmbH, Berlin, Germany) and II-1-receptor antagonist (Kineret, Swedish Orphan Biovitrum GmbH, Martinsried, Germany). Additive therapy: acetylsalicylic acid (Aspirin, Bayer Vital GmbH, Leverkusen, Germany), unfractionated heparin (Heparin-Natrium-25000-ratiopharm, ratiopharm GmbH, Ulm, Germany), C1 esterase inhibitor (Berinert, CSL Behring GmbH, Hattersheim, Germany), ganciclovir (Cymevene, Roche Pharma AG, Grenzach-Wyhlen, Germany), cefuroxime (Cefuroxim Hikma, Hikma Pharma GmbH, Martinsried, Germany) and epoetin beta (NeoRecormon 5000IU, Roche Pharma AG, Grenzach-Wyhlen, Germany).
Starting from 10 mg/kg/d, methylprednisolone was tapered down 1 mg/kg every 10 days in group I and II; in group III, methylprednisolone was tapered down to 0.1 mg/kg within 19 days. […]
Transthoracic echocardiographies were done in analgosedation at regular intervals using an HP Sonos 7500 (HP Inc., Palo Alto, Calif., USA); midpapillary short axis views were recorded. […]

[3] = test system: PCNA; assay: Western blot analysis of myocardium of transplanted hearts, PCNA; type: in vivo, pig; conditions: experiment 67 (group III), after treatment with temsirolimus, compared to control (Co)
Description: For protein extraction, heart samples were homogenized in Laemmli-extraction-buffer, and the protein content was estimated by the bicinchoninic acid (BCA, Merck, Darmstadt, Germany) protein assay. 20 μg of total protein was separated by 10% SDS-PAGE and transferred to polyvinylidene difluoride (PDVF) membranes (Millipore, Billerica, USA) by electroblotting. Membranes were washed in Tris-buffered saline solution with 0.1% Tween-20 (Merck) (TBS-T) and blocked in 5% w/v fat-free milk powder (Roth, Karlsruhe, Germany) for 1 h at room temperature. Then membranes were washed again in TBS-T and incubated in 5% w/v BSA (Roth) of the appropriate primary antibody overnight at 4° C. The following antibodies were used: rabbit anti-human pmTOR (#5536; Cell Signaling, Frankfurt, Germany) and mouse anti-human PCNA (#2586; Cell Signalling). After washing, membranes were incubated in 5% w/v fat-free milk powder with a horseradish peroxidase labelled secondary antibody for 1 h at room temperature. Bound antibodies were detected using an enhanced chemiluminescence detection reagent (ECL Advance Western Blotting Detection Kit, GE Healthcare, Munich, Germany) and appropriate x-ray films (GE Healthcare). After detection, membranes were stripped (Elution buffer: 2% SDS, 62.5 mM Tris/HCl, pH 6.7 and 100 mM […] for 30 min at 70° C.) and incubated with an appropriate second antibody. […]

[4] = target: T2, porcine growth hormone receptor (GHR) (pig, UniProt P19756 19-638); assay: ligand immunohistochemistry: rat GH on liver and kidney paraffin sections of control and GHR-KO pigs, detected with anti-rat GH antibody and DAB
T2 construct: whole, on cells; Endogenous receptor in tissue sections of control pigs; GHR-KO pigs (frameshift in exon 3) lack it; also called porcine GHR
T2 sequence (looked up): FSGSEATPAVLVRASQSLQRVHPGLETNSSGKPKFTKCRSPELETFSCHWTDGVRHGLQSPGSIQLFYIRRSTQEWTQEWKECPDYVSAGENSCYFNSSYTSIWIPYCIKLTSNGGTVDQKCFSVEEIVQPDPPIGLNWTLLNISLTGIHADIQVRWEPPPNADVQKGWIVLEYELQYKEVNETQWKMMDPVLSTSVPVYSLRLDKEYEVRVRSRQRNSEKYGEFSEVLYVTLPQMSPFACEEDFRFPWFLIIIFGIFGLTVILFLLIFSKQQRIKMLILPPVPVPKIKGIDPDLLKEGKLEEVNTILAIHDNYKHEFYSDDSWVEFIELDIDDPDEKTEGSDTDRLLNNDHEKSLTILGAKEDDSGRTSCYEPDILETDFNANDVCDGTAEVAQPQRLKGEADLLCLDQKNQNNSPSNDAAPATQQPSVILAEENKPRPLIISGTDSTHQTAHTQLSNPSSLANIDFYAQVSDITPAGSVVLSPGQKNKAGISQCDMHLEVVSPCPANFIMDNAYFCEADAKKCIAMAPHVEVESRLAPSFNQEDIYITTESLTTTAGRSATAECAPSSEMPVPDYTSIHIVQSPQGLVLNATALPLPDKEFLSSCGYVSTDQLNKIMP
Description: Liver and kidney tissue of GHR-KO and control pigs was fixed overnight in 4% formaldehyde and routinely embedded in paraffin. Paraffin sections were dewaxed, and endogenous peroxidase and biotin were blocked with 1% H₂O₂ in Tris-buffered saline (TBS) for 15 min and by using the avidin/biotin blocking kit (no. SP-2001; Vector Laboratories), respectively. After blocking with 0.5% fish gelatin for 30 min, the slides were incubated in 0.5 μg/mL recombinant rat GH (no. 16343667, ImmunoTools) in 0.2% fish gelatin solution overnight at 4° C. They were then washed 3 times for 5 min in TBS and incubated in goat anti-rat GH polyclonal antibody solution (dilution 1:2,400, no. AF1566, R&D Systems) for 6 h at room temperature. After 3 washing steps in TBS (10 min each), the slides were incubated in biotinylated rabbit anti-goat IgG solution (dilution 1:100, no. BA-5000, Vector Laboratories) for 1 h at room temperature, washed 3 times for 10 min in TBS, and finally incubated with horseradish peroxidase-labelled avidin biotin complex for 30 min (no. PK-6100, VECTASTAIN Elite ABC-Peroxidase kit, Vector Laboratories). Immunoreactivity was visualized using 3,3′-diaminobenzidine tetrahydrochloride dihydrate (DAB) (brown color). Nuclear counterstaining was performed with Mayer's hemalum (blue color). […]

[5] = group III, with antihypertensive treatment and early glucocorticoid tapering

T1 sequence (F1RHR8 1-2548): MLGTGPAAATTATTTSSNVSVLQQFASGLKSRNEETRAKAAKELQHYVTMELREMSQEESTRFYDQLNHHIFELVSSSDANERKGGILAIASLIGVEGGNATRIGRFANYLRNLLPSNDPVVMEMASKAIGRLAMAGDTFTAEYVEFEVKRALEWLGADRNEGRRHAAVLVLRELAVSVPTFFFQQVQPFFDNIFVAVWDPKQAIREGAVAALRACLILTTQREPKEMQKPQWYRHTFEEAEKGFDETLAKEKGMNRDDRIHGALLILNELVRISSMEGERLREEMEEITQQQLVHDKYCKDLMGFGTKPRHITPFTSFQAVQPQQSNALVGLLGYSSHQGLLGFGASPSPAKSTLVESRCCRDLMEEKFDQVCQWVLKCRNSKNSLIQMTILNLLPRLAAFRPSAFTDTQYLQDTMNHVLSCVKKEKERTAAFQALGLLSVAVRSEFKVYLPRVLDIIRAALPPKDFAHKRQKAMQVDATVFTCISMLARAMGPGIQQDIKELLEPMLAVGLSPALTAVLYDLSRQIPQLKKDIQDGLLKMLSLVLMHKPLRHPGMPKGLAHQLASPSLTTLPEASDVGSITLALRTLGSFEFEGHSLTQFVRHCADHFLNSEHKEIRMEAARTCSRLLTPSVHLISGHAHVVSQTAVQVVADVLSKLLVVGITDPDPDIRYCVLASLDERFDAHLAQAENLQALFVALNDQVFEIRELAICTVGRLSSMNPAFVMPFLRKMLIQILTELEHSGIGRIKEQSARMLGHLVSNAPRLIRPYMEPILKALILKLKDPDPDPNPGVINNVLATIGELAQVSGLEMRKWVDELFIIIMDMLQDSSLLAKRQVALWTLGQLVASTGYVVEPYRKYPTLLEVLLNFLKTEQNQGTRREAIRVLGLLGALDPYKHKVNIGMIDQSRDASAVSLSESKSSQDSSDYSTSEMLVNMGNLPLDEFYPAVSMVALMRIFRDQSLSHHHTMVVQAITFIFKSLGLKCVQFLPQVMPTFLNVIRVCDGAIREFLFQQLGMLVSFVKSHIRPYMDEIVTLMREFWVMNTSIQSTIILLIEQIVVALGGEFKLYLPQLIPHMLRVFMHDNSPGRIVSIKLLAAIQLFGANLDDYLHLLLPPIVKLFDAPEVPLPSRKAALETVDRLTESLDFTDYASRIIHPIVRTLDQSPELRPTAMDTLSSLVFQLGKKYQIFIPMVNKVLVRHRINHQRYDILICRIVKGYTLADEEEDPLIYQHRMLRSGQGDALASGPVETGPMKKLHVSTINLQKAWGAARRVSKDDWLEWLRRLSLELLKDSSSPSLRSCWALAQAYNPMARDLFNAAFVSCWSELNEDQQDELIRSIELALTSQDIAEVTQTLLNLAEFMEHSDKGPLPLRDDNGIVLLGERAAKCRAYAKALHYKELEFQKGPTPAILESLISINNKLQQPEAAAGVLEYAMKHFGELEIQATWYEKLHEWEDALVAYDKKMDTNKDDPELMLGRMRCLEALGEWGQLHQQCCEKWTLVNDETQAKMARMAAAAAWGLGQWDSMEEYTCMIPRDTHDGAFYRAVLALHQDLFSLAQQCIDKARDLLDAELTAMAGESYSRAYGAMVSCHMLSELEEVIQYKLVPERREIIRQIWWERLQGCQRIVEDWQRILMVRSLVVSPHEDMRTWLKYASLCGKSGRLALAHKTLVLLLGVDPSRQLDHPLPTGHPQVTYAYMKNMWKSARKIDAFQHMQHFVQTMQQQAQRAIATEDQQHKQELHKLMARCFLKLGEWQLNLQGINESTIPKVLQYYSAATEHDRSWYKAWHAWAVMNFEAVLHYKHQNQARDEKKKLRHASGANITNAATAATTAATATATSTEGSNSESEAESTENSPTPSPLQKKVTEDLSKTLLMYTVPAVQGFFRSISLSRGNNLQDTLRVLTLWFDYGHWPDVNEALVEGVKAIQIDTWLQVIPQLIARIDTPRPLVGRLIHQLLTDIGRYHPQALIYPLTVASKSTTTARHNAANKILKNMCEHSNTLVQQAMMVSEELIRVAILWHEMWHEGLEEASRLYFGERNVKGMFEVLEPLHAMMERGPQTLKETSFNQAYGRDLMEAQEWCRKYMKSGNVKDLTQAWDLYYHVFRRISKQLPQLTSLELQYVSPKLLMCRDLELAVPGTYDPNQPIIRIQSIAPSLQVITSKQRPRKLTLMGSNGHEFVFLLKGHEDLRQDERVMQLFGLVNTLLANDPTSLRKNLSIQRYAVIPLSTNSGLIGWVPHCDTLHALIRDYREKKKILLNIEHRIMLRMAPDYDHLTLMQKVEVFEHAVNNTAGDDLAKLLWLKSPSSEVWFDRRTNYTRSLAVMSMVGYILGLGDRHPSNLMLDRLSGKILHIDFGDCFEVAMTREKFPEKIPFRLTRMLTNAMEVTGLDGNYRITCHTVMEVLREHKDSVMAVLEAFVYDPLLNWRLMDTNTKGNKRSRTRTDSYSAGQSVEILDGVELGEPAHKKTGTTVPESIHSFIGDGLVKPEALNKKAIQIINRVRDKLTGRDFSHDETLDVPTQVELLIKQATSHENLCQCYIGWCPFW

## CO[C@H]1C[C@@H]2CC[C@@H](C)[C@@](O)(O2)C(=O)C(=O)N2CCCC[C@H]2C(=O)O[C@H]([C@H](C)C[C@@H]2CC[C@@H](OC(=O)C(C)(CO)CO)[C@H](OC)C2)CC(=O)[C@H](C)/C=C(\C)[C@@H](O)[C@@H](OC)C(=O)[C@H](C)C[C@H](C)/C=C/C=C/C=C/1C [temsirolimus]
[1]
  phosphorylated mTOR in myocardium (Western blot): downregulated
[2]; group III recipients: antihypertensive treatment, early glucocorticoid weaning and additional temsirolimus medication
  pathologic findings described for groups I and II (heart and liver failure, graft overgrowth, myocardial hypertrophy): absent
[2]; group III, combination of blood pressure lowering, early cortisone tapering and temsirolimus
  cardiac overgrowth: successfully counteracted
[2]; [5]
  myocardial hypertrophy of the transplanted heart: mitigated
  obliteration of LV cavity: omitted
[2]; recipients 13 and 14, i.v. temsirolimus discontinued on day 175 and on day 161
  growth of the cardiac graft (LV mass) after discontinuation of temsirolimus: increased growth of the cardiac graft
[3]
  PCNA in myocardium (Western blot): downregulated

B1: recombinant rat GH (no. 16343667, ImmunoTools) (ligand, UniProt P01244 27-216, looked up)
chain: FPAMPLSSLFANAVLRAQHLHQLAADTYKEFERAYIPEGQRYSIQNAQAAFCFSETIPAPTGKEEAQQRTDMELLRFSLLLIQSWLGPVQFLSRIFTNSLMFGTSDRVYEKLKDLEEGIQALMQELEDGSPRIGQILKQTYDKFDANMRSDDALLKNYGLLSCFKKDLHKAETYLRVMKCRRFAESSCAF
notes: Used at 0.5 ug/mL as the ligand in ligand immunohistochemistry; Detected with goat anti-rat GH polyclonal antibody; also called growth hormone
[4]
  binding result: binds
